# According to ChEMBL document CHEMBL4507265 (2021):
# Key:
# [1] = molecular target: Phosphatidylinositol 5-phosphate 4-kinase type-2 beta (Homo sapiens) (UniProt P78356); details: Compound concentration 1000.0 nM
# [2] = molecular target: Homeodomain-interacting protein kinase 4 (Homo sapiens) (UniProt Q8NE63); details: Compound concentration 1000.0 nM
# [3] = tested on: Tyrosine-protein kinase ABL1 (Homo sapiens), P00519 [M351T]; details: Compound concentration 1000.0 nM
# [4] = molecular target: Casein kinase I isoform alpha (Homo sapiens) (UniProt P48729); details: Compound concentration 1000.0 nM
# [5] = molecular target: Ribosomal protein S6 kinase alpha-1 (Homo sapiens) (UniProt Q15418); details: Compound concentration 1000.0 nM
# [6] = molecular target: GABA-A receptor; anion channel (Rattus norvegicus) (UniProt O09028+P15431+P18506+P18508+P19969+P20236+P23574+P23576+P28471+P28473+P30191+P62813+P63079+P63138+Q91ZM7+Q9ES14); details: Compound concentration 10.0 uM
# [7] = molecular target: Serine/threonine-protein kinase PLK2 (Homo sapiens) (UniProt Q9NYY3); details: Compound concentration 1000.0 nM
# [8] = molecular target: Wee1-like protein kinase 2 (Homo sapiens) (UniProt P0C1S8); details: Compound concentration 1000.0 nM
# [9] = molecular target: Alpha-2B adrenergic receptor (Homo sapiens) (UniProt P18089); details: Compound concentration 10.0 uM
# [10] = molecular target: Serine/threonine-protein kinase TAO1 (Homo sapiens) (UniProt Q7L7X3); details: Compound concentration 1000.0 nM
# [11] = molecular target: Mitogen-activated protein kinase 8 (Homo sapiens) (UniProt P45983); details: Compound concentration 1000.0 nM
# [12] = molecular target: Mitogen-activated protein kinase 13 (Homo sapiens) (UniProt O15264); details: Compound concentration 1000.0 nM
# [13] = molecular target: Tyrosine-protein kinase JAK3 (Homo sapiens) (UniProt P52333); details: Compound concentration 1000.0 nM
# [14] = molecular target: Fibroblast growth factor receptor 1 (Homo sapiens) (UniProt P11362); details: Compound concentration 1000.0 nM
# [15] = tested on: Tyrosine-protein kinase ABL1 (Homo sapiens), P00519 [T315I]; details: Compound concentration 1000.0 nM
# [16] = molecular target: Calcium/calmodulin-dependent protein kinase type 1B (Homo sapiens) (UniProt Q6P2M8); details: Compound concentration 1000.0 nM
# [17] = molecular target: Tyrosine-protein kinase receptor UFO (Homo sapiens) (UniProt P30530); details: Compound concentration 1000.0 nM
# [18] = molecular target: Tyrosine-protein kinase ZAP-70 (Homo sapiens) (UniProt P43403); details: Compound concentration 1000.0 nM
# [19] = molecular target: ALK tyrosine kinase receptor (Homo sapiens) (UniProt Q9UM73); details: Compound concentration 1000.0 nM
# [20] = molecular target: Serine/threonine-protein kinase MAK (Homo sapiens) (UniProt P20794); details: Compound concentration 1000.0 nM
# [21] = molecular target: Receptor-interacting serine/threonine-protein kinase 4 (Homo sapiens) (UniProt P57078); details: Compound concentration 1000.0 nM
# [22] = molecular target: Cyclin-dependent kinase-like 3 (Homo sapiens) (UniProt Q8IVW4); details: Compound concentration 1000.0 nM
# [23] = molecular target: Serine/threonine-protein kinase 17A (Homo sapiens) (UniProt Q9UEE5); details: Compound concentration 1000.0 nM
# [24] = molecular target: Tyrosine-protein kinase CSK (Homo sapiens) (UniProt P41240); details: Compound concentration 1000.0 nM
# [25] = molecular target: Serine/threonine-protein kinase ICK (Homo sapiens) (UniProt Q9UPZ9); details: Compound concentration 1000.0 nM
# [26] = molecular target: Peripheral plasma membrane protein CASK (Homo sapiens) (UniProt O14936); details: Compound concentration 1000.0 nM
# [27] = molecular target: Phosphatidylinositol 4-phosphate 3-kinase C2 domain-containing subunit beta (Homo sapiens) (UniProt O00750); details: Compound concentration 1000.0 nM
# [28] = molecular target: Kappa-type opioid receptor (Homo sapiens) (UniProt P41145); details: Compound concentration 10.0 uM
# [29] = molecular target: Interferon-induced, double-stranded RNA-activated protein kinase (Homo sapiens) (UniProt P19525); details: Compound concentration 1000.0 nM
# [30] = molecular target: Serine/threonine-protein kinase pim-2 (Homo sapiens) (UniProt Q9P1W9); details: Compound concentration 1000.0 nM
# [31] = molecular target: Tyrosine-protein kinase ABL1 (Homo sapiens) (UniProt P00519); details: Compound concentration 1000.0 nM
# [32] = molecular target: Serine/threonine-protein kinase 10 (Homo sapiens) (UniProt O94804); details: Compound concentration 1000.0 nM
# [33] = molecular target: Citron Rho-interacting kinase (Homo sapiens) (UniProt O14578); details: Compound concentration 1000.0 nM
# [34] = molecular target: Alpha-2C adrenergic receptor (Homo sapiens) (UniProt P18825); details: Compound concentration 10.0 uM
# [35] = molecular target: Receptor-type tyrosine-protein kinase FLT3 (Homo sapiens) (UniProt P36888); details: Compound concentration 1000.0 nM
# [36] = molecular target: Muscarinic acetylcholine receptor M5 (Homo sapiens) (UniProt P08912); details: Compound concentration 10.0 uM
# [37] = molecular target: Platelet-derived growth factor receptor alpha (Homo sapiens) (UniProt P16234); details: Compound concentration 1000.0 nM
# [38] = molecular target: Serine/threonine-protein kinase N1 (Homo sapiens) (UniProt Q16512); details: Compound concentration 1000.0 nM
# [39] = molecular target: Tyrosine-protein kinase Yes (Homo sapiens) (UniProt P07947); details: Compound concentration 1000.0 nM
# [40] = tested on: Epidermal growth factor receptor (Homo sapiens), P00533 [UNDEFINED MUTATION]; details: Compound concentration 1000.0 nM
# [41] = molecular target: MAP/microtubule affinity-regulating kinase 3 (Homo sapiens) (UniProt P27448); details: Compound concentration 1000.0 nM
# [42] = molecular target: Cyclin-dependent kinase 5 (Homo sapiens) (UniProt Q00535); details: Compound concentration 1000.0 nM
# [43] = molecular target: Serine/threonine-protein kinase RIO1 (Homo sapiens) (UniProt Q9BRS2); details: Compound concentration 1000.0 nM
# [44] = molecular target: Mitogen-activated protein kinase kinase kinase 20 (Homo sapiens) (UniProt Q9NYL2); details: Compound concentration 1000.0 nM
# Chain of Mitogen-activated protein kinase kinase kinase 20 (Homo sapiens) (Q9NYL2 2-800 limits assumed): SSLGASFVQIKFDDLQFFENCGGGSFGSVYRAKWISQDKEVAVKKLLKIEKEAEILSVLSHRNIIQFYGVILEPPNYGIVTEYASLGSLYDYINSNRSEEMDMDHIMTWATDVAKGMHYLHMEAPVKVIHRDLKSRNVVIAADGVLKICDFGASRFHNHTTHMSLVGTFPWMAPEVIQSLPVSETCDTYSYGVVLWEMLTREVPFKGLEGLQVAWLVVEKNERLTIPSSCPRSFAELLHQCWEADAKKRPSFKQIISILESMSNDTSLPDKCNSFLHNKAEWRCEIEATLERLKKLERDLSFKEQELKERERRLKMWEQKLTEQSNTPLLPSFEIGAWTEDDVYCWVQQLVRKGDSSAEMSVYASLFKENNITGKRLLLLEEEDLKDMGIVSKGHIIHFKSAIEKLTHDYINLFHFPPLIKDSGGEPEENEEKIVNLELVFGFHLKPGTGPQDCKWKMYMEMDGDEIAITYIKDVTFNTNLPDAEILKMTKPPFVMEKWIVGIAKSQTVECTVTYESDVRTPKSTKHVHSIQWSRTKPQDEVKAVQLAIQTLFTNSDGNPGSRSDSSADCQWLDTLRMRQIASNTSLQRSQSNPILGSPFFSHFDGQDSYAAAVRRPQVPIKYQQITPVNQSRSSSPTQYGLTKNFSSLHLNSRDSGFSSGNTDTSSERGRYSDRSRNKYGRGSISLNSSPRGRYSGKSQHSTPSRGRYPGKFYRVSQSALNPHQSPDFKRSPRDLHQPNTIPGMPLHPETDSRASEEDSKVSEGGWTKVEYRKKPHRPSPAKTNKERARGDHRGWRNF
# Chain of Epidermal growth factor receptor (Homo sapiens), P00533 [UNDEFINED MUTATION] (P00533 whole entry, looked up, change not shown): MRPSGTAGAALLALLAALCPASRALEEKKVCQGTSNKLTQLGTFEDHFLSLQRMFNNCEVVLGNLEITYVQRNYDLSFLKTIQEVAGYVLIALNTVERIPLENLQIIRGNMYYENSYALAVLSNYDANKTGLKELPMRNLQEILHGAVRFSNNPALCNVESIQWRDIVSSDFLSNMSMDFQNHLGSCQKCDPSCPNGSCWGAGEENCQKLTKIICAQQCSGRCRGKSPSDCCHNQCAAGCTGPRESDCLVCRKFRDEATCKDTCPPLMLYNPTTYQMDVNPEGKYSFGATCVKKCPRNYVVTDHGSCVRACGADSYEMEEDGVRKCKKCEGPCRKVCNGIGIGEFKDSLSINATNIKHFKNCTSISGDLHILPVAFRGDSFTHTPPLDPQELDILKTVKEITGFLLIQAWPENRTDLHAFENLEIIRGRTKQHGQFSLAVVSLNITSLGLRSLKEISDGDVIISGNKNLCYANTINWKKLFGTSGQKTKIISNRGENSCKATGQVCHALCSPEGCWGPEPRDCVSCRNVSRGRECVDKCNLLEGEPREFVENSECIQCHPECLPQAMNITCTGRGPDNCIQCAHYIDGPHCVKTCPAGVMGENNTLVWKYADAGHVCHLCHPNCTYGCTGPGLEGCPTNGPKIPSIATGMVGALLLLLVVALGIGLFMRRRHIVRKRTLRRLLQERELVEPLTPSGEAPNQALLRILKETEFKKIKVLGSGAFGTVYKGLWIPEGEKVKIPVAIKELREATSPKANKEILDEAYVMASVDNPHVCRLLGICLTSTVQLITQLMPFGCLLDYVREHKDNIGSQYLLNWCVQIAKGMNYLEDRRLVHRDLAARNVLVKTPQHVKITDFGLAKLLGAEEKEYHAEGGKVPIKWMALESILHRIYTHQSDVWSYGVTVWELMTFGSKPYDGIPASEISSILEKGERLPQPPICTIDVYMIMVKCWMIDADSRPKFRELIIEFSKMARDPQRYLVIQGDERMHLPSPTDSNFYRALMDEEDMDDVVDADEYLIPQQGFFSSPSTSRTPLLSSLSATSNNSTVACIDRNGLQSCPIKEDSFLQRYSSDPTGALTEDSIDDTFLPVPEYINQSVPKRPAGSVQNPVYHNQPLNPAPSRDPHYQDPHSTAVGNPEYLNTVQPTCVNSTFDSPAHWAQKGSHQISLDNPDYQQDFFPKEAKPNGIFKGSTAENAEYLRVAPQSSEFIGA
# Chain of Homeodomain-interacting protein kinase 4 (Homo sapiens) (Q8NE63 whole entry): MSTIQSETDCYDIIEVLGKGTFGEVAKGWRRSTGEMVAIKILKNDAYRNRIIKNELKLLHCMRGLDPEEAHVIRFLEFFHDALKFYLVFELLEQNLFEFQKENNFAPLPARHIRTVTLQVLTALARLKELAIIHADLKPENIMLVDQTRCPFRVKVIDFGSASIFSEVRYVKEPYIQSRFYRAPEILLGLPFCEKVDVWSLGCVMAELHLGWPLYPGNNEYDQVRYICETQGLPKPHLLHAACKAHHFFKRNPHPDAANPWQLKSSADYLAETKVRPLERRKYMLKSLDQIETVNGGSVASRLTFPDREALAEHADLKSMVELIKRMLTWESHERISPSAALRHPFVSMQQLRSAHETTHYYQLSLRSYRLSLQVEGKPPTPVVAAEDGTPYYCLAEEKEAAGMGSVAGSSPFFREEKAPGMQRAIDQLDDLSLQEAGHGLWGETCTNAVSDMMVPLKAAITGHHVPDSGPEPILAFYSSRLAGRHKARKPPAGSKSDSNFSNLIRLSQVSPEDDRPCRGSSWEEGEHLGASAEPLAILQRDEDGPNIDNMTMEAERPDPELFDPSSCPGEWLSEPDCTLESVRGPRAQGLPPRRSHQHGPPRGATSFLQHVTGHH
# Chain of Tyrosine-protein kinase JAK3 (Homo sapiens) (P52333 whole entry): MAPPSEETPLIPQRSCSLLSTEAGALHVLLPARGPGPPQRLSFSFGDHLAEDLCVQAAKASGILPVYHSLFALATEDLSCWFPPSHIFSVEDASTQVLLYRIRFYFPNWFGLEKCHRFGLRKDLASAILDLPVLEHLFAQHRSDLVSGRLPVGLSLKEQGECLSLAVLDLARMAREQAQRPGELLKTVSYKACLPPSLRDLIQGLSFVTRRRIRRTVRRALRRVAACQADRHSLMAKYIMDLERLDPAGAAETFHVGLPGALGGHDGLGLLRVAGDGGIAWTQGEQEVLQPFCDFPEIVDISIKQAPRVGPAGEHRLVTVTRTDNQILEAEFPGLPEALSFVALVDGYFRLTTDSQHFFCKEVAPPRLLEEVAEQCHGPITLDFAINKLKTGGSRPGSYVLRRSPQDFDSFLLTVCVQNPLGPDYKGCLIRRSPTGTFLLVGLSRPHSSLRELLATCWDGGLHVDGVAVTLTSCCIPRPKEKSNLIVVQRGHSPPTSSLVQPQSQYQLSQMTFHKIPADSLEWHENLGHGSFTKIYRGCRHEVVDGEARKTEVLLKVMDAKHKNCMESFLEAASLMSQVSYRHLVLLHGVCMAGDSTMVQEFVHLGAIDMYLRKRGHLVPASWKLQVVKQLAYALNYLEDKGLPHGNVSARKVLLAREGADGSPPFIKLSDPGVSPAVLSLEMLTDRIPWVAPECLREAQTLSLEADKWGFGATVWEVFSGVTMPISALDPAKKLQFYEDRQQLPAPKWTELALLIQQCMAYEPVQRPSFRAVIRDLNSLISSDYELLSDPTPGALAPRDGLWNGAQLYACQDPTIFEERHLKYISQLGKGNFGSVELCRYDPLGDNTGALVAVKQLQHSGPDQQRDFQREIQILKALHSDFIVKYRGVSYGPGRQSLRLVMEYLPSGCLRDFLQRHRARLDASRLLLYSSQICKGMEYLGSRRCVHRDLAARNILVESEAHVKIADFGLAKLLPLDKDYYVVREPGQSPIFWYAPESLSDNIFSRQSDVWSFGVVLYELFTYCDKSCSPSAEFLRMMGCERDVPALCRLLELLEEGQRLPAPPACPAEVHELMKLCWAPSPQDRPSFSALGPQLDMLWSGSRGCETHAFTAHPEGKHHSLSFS
# Chain of Ribosomal protein S6 kinase alpha-1 (Homo sapiens) (Q15418 whole entry): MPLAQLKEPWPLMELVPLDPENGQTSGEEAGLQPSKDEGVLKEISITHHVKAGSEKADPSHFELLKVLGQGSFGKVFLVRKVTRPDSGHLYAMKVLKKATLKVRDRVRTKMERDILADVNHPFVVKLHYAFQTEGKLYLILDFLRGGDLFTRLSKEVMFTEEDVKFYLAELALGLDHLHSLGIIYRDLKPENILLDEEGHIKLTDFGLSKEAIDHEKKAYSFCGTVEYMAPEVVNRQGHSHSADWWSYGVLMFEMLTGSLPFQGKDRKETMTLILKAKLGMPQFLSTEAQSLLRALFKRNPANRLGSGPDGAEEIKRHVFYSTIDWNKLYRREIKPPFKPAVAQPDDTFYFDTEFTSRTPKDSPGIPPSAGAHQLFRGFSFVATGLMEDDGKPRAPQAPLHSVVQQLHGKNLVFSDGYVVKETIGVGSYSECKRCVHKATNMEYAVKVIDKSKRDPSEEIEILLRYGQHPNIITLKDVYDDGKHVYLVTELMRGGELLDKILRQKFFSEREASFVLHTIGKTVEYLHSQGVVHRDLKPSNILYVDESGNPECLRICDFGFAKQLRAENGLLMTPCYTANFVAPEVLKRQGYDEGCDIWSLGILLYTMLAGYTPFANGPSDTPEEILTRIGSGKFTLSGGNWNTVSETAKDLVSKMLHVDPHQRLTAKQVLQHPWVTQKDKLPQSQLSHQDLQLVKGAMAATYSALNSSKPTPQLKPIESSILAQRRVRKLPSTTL
# Chain of Mitogen-activated protein kinase 13 (Homo sapiens) (O15264 whole entry): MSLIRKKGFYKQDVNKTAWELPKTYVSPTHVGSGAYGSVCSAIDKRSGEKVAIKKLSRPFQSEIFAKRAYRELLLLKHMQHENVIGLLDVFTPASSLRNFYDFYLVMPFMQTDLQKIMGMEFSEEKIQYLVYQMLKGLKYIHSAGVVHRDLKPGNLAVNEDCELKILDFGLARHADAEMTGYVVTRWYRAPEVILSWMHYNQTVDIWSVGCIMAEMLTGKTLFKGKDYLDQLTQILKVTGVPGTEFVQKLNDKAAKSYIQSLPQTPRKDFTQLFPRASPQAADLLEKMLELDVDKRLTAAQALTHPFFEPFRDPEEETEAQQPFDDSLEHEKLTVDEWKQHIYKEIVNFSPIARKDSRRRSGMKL
compound,measurement,setting,value
NS(=O)(=O)c1cc(NC(=O)C2(c3ccccc3Cl)CC2)ccc1Oc1cccc(Cl)c1 [BAY-207],residual activity,[1],62%
same,residual activity,[2],58%
same,residual activity,[3],70%
same,residual activity,[4],100%
same,residual activity,[5],98%
same,inhibition,[6],3.19%
same,residual activity,[7],84%
same,residual activity,[8],74%
same,inhibition,[9],43.4%
same,residual activity,[10],91%
same,residual activity,[11],100%
same,residual activity,[12],88%
same,residual activity,[13],64%
same,residual activity,[14],100%
same,residual activity,[15],75%
same,residual activity,[16],100%
same,residual activity,[17],89%
same,residual activity,[18],100%
same,residual activity,[19],85%
same,residual activity,[20],89%
same,residual activity,[21],100%
same,residual activity,[22],77%
same,residual activity,[23],85%
same,residual activity,[24],100%
same,residual activity,[25],100%
same,residual activity,[26],89%
same,residual activity,[27],100%
same,inhibition,[28],21.2%
same,residual activity,[29],100%
same,residual activity,[30],76%
same,residual activity,[31],64%
same,residual activity,[32],69%
same,residual activity,[33],78%
same,inhibition,[34],89.6%
same,residual activity,[35],70%
same,inhibition,[36],14.7%
same,residual activity,[37],81%
same,residual activity,[38],100%
same,residual activity,[39],90%
same,residual activity,[40],57%
same,residual activity,[41],92%
same,residual activity,[42],74%
same,residual activity,[43],84%
same,residual activity,[44],99%
NS(=O)(=O)c1cc(NC(=O)Cc2ccccc2)ccc1Oc1cccc(Cl)c1 [BAY-1797],residual activity,[1],89%
same,residual activity,[2],100%
same,residual activity,[3],78%
same,residual activity,[4],93%
same,residual activity,[5],91%
same,inhibition,[6],0.73%
same,residual activity,[7],73%
same,residual activity,[8],78%
same,inhibition,[9],56.6%
same,residual activity,[10],93%
same,residual activity,[11],69%
same,residual activity,[12],100%
same,residual activity,[13],96%
same,residual activity,[14],100%
same,residual activity,[15],88%
same,residual activity,[16],83%
same,residual activity,[17],93%
same,residual activity,[18],87%
same,residual activity,[19],100%
same,residual activity,[20],100%
same,residual activity,[21],83%
same,residual activity,[22],95%
same,residual activity,[23],94%
same,residual activity,[24],100%
same,residual activity,[25],100%
same,residual activity,[26],86%
same,residual activity,[27],91%
same,inhibition,[28],20.3%
same,residual activity,[29],80%
same,residual activity,[30],100%
same,residual activity,[31],78%
same,residual activity,[32],65%
same,residual activity,[33],100%
same,inhibition,[34],18.2%
same,residual activity,[35],90%
same,inhibition,[36],16.7%
same,residual activity,[37],80%
same,residual activity,[38],100%
same,residual activity,[39],86%
same,residual activity,[40],67%
same,residual activity,[41],100%
same,residual activity,[42],61%
same,residual activity,[43],93%
same,residual activity,[44],100%
